From patent publication US12662489B2 (Sitryx Therapeutics Limited, priority 2023, dated 2026)

Legend:
[1] = molecular target: T1, MTHFD1 recombinant human enzyme (Homo sapiens, UniProt P11586); assay: MTHFD1 inhibition assay (NAD(P)H-Glo luminescence); settings: MTHFD1 IC50, recombinant human enzyme 200 nM, NADP, band
T1 sequence (P11586 2-291 limits assumed): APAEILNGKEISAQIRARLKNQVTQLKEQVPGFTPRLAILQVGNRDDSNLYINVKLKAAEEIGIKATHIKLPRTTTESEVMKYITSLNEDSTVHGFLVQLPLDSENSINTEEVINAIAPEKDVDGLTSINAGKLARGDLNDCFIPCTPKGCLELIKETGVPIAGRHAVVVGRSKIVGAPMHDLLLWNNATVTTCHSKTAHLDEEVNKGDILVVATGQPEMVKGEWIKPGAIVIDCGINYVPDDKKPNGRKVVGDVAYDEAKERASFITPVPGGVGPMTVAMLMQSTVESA

[2] = molecular target: T2, MTHFD2 recombinant human enzyme (Homo sapiens, UniProt P13995); assay: MTHFD2 inhibition assay (NAD(P)H-Glo luminescence); settings: for MTHFD1/MTHFD2 IC50 ratio: selectivity of MTHFD2 inhibition over MTHFD1, band
T2 sequence (P13995 36-350): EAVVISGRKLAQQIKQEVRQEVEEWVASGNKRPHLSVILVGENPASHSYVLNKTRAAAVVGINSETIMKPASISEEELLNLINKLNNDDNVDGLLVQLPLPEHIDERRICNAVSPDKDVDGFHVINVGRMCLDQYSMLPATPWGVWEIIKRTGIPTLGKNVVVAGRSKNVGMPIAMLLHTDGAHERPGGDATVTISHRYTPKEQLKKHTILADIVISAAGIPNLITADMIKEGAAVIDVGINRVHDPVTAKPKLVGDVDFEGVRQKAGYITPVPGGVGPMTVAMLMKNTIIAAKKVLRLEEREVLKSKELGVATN

## COC[C@H]1CN(c2cc(C)c3c4c(c(=O)oc3c2C)CN(C(=O)c2ccc(C(=O)NS(=O)(=O)C3(C)CC3)c(N(C)C3CCC3)c2F)CC4)CCN1C [Example 38, (R)-2-(cyclobutyl(methyl)amino)-3-fluoro-4-(8-(3-(methoxymethyl)-4-methylpiperazin-1-yl)-7,10-dimethyl-5-oxo-1,3,4,5-tetrahydro-2H-chromeno[3,4-c]pyridine-3-carbonyl)-N-((1-methylcyclopropyl)sulfonyl)benzamide]
[1]
  IC50: 10 to 100 nM
[2]
  IC50: 1 to 10 nM
  MTHFD1/MTHFD2 IC50 ratio: G (^ 3 to 9.0)

## COC[C@H]1CN(c2cc(C)c3c4c(c(=O)oc3c2C)CN(C(=O)c2ccc(C(=O)NS(=O)(=O)N(C)C)c(OC)c2F)CC4)CCN1C [Example 134, (R)-N-(N,N-dimethylsulfamoyl)-3-fluoro-2-methoxy-4-(8-(3-(methoxymethyl)-4-methylpiperazin-1-yl)-7,10-dimethyl-5-oxo-1,3,4,5-tetrahydro-2H-chromeno[3,4-c]pyridine-3-carbonyl)benzamide]
[1]
  IC50: 10 to 100 nM
[2]
  IC50: 10 to 100 nM
  MTHFD1/MTHFD2 IC50 ratio: G (^ 3 to 9.0)

## COC[C@H]1CN(c2ccc3c4c(c(=O)oc3c2C)CN(C(=O)c2c(C)cc(C(=O)NS(=O)(=O)N3CCCC3)c(OC3CCC3)c2F)CC4)CCN1C [Example 140, (R)-2-cyclobutoxy-3-fluoro-4-(8-(3-(methoxymethyl)-4-methylpiperazin-1-yl)-7-methyl-5-oxo-1,3,4,5-tetrahydro-2H-chromeno[3,4-c]pyridine-3-carbonyl)-5-methyl-N-(pyrrolidin-1-ylsulfonyl) benzamide]
[1]
  IC50: 100 to 1000 nM
[2]
  IC50: 100 to 1000 nM
  MTHFD1/MTHFD2 IC50 ratio: F (<3)

## COC[C@H]1CN(c2cc(C)c3c4c(c(=O)oc3c2C)CN(C(=O)c2ccc(C(=O)NS(=O)(=O)N3CCCC3)c(N(C)C3CCC3)c2)CC4)CCN1C [Example 200, (R)-2-(cyclobutyl(methyl)amino)-4-(8-(3-(methoxymethyl)-4-methylpiperazin-1-yl)-7,10-dimethyl-5-oxo-1,3,4,5-tetrahydro-2H-chromeno[3,4-c]pyridine-3-carbonyl)-N-(pyrrolidin-1-ylsulfonyl)benzamide]
[1]
  IC50: 100 to 1000 nM
[2]
  IC50: 10 to 100 nM
  MTHFD1/MTHFD2 IC50 ratio: H (>9.0 to 30)

## COC[C@H]1CN(c2ccc3c4c(c(=O)oc3c2C)CN(C(=O)c2cc(F)c(C(=O)NS(=O)(=O)C3(C)CC3)c(N3CC5CC5C3)c2)CC4)CCN1C (stereo partly drawn) [Example 26, 2-(3-azabicyclo[3.1.0]hexan-3-yl)-6-fluoro-4-(8-((R)-3-(methoxymethyl)-4-methylpiperazin-1-yl)-7-methyl-5-oxo-1,3,4,5-tetrahydro-2H-chromeno[3,4-c]pyridine-3-carbonyl)-N-((1-methylcyclopropyl)sulfonyl)benzamide]
[1]
  IC50: 1 to 10 nM
[2]
  IC50: 1 to 10 nM
  MTHFD1/MTHFD2 IC50 ratio: F (<3)

## COC[C@H]1CN(c2cc(C)c3c4c(c(=O)oc3c2C)CN(C(=O)c2ccc(C(=O)NS(=O)(=O)N3CCCC3)c(N3C5CCC3CC5)c2)CC4)CCN1C [Example 121, (R)-2-(7-azabicyclo[2.2.1]heptan-7-yl)-4-(8-(3-(methoxymethyl)-4-methylpiperazin-1-yl)-7,10-dimethyl-5-oxo-1,3,4,5-tetrahydro-2H-chromeno[3,4-c]pyridine-3-carbonyl)-N-(pyrrolidin-1-ylsulfonyl)benzamide]
[1]
  IC50: 1 to 10 nM
[2]
  IC50: 10 to 100 nM
  MTHFD1/MTHFD2 IC50 ratio: F (<3)

## COC[C@H]1CN(c2cc(C)c3c4c(c(=O)oc3c2C)CN(C(=O)c2ccc(C(=O)NS(=O)(=O)N(C)C3CCCC3)c(OC)c2F)CC4)CCN1C [Example 238]
[1]
  IC50: 100 to 1000 nM
[2]
  IC50: 10 to 100 nM
  MTHFD1/MTHFD2 IC50 ratio: H (>9.0 to 30)

## COC[C@H]1CN(c2ccc3c4c(c(=O)oc3c2C)CN(C(=O)c2ccc(C(=O)NS(=O)(=O)N3CCCC3)c(N(C)C)c2F)CC4)CCN1C [Example 139, (R)-2-(dimethylamino)-3-fluoro-4-(8-(3-(methoxymethyl)-4-methylpiperazin-1-yl)-7-methyl-5-oxo-1,3,4,5-tetrahydro-2H-chromeno[3,4-c]pyridine-3-carbonyl)-N-(pyrrolidin-1-ylsulfonyl)benzamide]
[1]
  IC50: 100 to 1000 nM
[2]
  IC50: 100 to 1000 nM
  MTHFD1/MTHFD2 IC50 ratio: G (^ 3 to 9.0)

## COC[C@H]1CN(c2ccc3c4c(c(=O)oc3c2C)CN(C(=O)c2ccc(C(=O)NS(=O)(=O)N3CCCC3)c(OC3C[C@@H]5C[C@@H]5C3)c2)CC4)CCN1C (mixture of isomers) [Example 114, 2-(bicyclo[3.1.0]hexan-3-yloxy)-4-(8-((R)-3-(methoxymethyl)-4-methylpiperazin-1-yl)-7-methyl-5-oxo-1,3,4,5-tetrahydro-2H-chromeno[3,4-c]pyridine-3-carbonyl)-N-(pyrrolidin-1-ylsulfonyl)benzamide]
[1]
  IC50: 10 to 100 nM
[2]
  IC50: 100 to 1000 nM
  MTHFD1/MTHFD2 IC50 ratio: F (<3)

## COC[C@H]1CN(c2cc(C)c3c4c(c(=O)oc3c2C)CN(C(=O)c2ccc(C(=O)NS(=O)(=O)N3C5CCC3CC5)c(OC3CC3)c2F)CC4)CCN1C [Example 213, (R)-N-((7-azabicyclo[2.2.1]heptan-7-yl)sulfonyl)-2-cyclopropoxy-3-fluoro-4-(8-(3-(methoxymethyl)-4-methylpiperazin-1-yl)-7,10-dimethyl-5-oxo-1,3,4,5-tetrahydro-2H-chromeno[3,4-c]pyridine-3-carbonyl)benzamide]
[1]
  IC50: 10 to 100 nM
[2]
  IC50: 1 to 10 nM
  MTHFD1/MTHFD2 IC50 ratio: G (^ 3 to 9.0)

## COC[C@H]1CN(c2cc(C)c3c4c(c(=O)oc3c2C)CN(C(=O)c2cc(OC)c(C(=O)NS(=O)(=O)N3CCCC3)c(C(F)(F)F)c2)CC4)CCN1C [Example 154, (R)-2-methoxy-4-(8-(3-(methoxymethyl)-4-methylpiperazin-1-yl)-7,10-dimethyl-5-oxo-1,3,4,5-tetrahydro-2H-chromeno[3,4-c]pyridine-3-carbonyl)-N-(pyrrolidin-1-ylsulfonyl)-6-(trifluoromethyl)benzamide]
[1]
  IC50: 1000 to 5000 nM
[2]
  IC50: 100 to 1000 nM
  MTHFD1/MTHFD2 IC50 ratio: H (>9.0 to 30)

## COC[C@H]1CN(c2cc(C)c3c4c(c(=O)oc3c2C)CN(C(=O)c2cc(C(=O)NS(=O)(=O)N3CCCC3)c3c(c2F)OC2(CCC2)O3)CC4)CCN1C [Example 168, (R)-4-fluoro-5-(8-(3-(methoxymethyl)-4-methylpiperazin-1-yl)-7,10-dimethyl-5-oxo-1,3,4,5-tetrahydro-2H-chromeno[3,4-c]pyridine-3-carbonyl)-N-(pyrrolidin-1-ylsulfonyl)spiro[benzo[d][1,3]dioxole-2,1′-cyclobutane]-7-carboxamide]
[1]
  IC50: > 5000 nM
[2]
  IC50: 1000 to 5000 nM
  MTHFD1/MTHFD2 IC50 ratio: F (<3)

## COC[C@H]1CN(c2ccc3c4c(c(=O)oc3c2C)CN(C(=O)c2cc(Cl)c(C(=O)NS(=O)(=O)C3(C)CC3)c(N3C5CCC3CC5)c2)CC4)CCN1C [Example 40, (R)-2-(7-azabicyclo[2.2.1]heptan-7-yl)-6-chloro-4-(8-(3-(methoxymethyl)-4-methylpiperazin-1-yl)-7-methyl-5-oxo-1,3,4,5-tetrahydro-2H-chromeno[3,4-c]pyridine-3-carbonyl)-N-((1-methylcyclopropyl)sulfonyl)benzamide]
[1]
  IC50: 10 to 100 nM
[2]
  IC50: 1 to 10 nM
  MTHFD1/MTHFD2 IC50 ratio: H (>9.0 to 30)

## COC[C@H]1CN(c2cc(C)c3c4c(c(=O)oc3c2C)CN(C(=O)c2cc(OC(C)C)c(C(=O)NS(=O)(=O)N3CCCC3)c(C(F)(F)F)c2)CC4)CCN1C [Example 161, (R)-2-isopropoxy-4-(8-(3-(methoxymethyl)-4-methylpiperazin-1-yl)-7,10-dimethyl-5-oxo-1,3,4,5-tetrahydro-2H-chromeno[3,4-c]pyridine-3-carbonyl)-N-(pyrrolidin-1-ylsulfonyl)-6-(trifluoromethyl)benzamide]
[1]
  IC50: 1000 to 5000 nM
[2]
  IC50: 10 to 100 nM
  MTHFD1/MTHFD2 IC50 ratio: J (>30)

## CCOc1cc(C(=O)N2CCc3c(c(=O)oc4c(C)c(N5CCN(C)[C@@H](COC)C5)cc(C)c34)C2)ccc1C(=O)NS(=O)(=O)N1C2CCC1CC2 [Example 227, (R)-N-((7-azabicyclo[2.2.1]heptan-7-yl)sulfonyl)-2-ethoxy-4-(8-(3-(methoxymethyl)-4-methylpiperazin-1-yl)-7,10-dimethyl-5-oxo-1,3,4,5-tetrahydro-2H-chromeno[3,4-c]pyridine-3-carbonyl)benzamide]
[1]
  IC50: 100 to 1000 nM
[2]
  IC50: 1 to 10 nM
  MTHFD1/MTHFD2 IC50 ratio: H (>9.0 to 30)

## CCOc1cc(C(=O)N2CCc3c(c(=O)oc4c(C)c(N5CCN(C)[C@@H](COC)C5)cc(Cl)c34)C2)c(F)cc1C(=O)NS(=O)(=O)N1C2CCC1CC2 [Example 317, (R)-N-((7-azabicyclo[2.2.1]heptan-7-yl)sulfonyl)-4-(10-chloro-8-(3-(methoxymethyl)-4-methylpiperazin-1-yl)-7-methyl-5-oxo-1,3,4,5-tetrahydro-2H-chromeno[3,4-c]pyridine-3-carbonyl)-2-ethoxy-5-fluorobenzamide]
[1]
  IC50: 100 to 1000 nM
[2]
  IC50: 10 to 100 nM
  MTHFD1/MTHFD2 IC50 ratio: J (>30)
